From US12371454B2, “Cyclic peptide compound having Kras inhibitory action” (priority 2019, dated 2025)
Starred links: 1 amine or outer side, 2 acyl side, 3 side chain; linkers in the order of their positions; H or OH if unused. Positions of bridges follow the written chain, without caps; N, C: chain ends. Non-standard residues stand in square brackets, D forms with d. Residues, ends and D or L forms follow the SMILES beside them. *: point of attachment. hPhe(3,5-F2-4-CF3) = N[C@@H](CCc1cc(F)c(C(F)(F)F)c(F)c1)C(=O)O; hPhe(3-Cl-4-CF3) = N[C@@H](CCc1ccc(C(F)(F)F)c(Cl)c1)C(=O)O; NMePhe(4-CF3) = CN[C@@H](Cc1ccc(C(F)(F)F)cc1)C(=O)O; hPhe(4-CF3) = N[C@@H](CCc1ccc(C(F)(F)F)cc1)C(=O)O; NMePhe(4-Cl) = CN[C@@H](Cc1ccc(Cl)cc1)C(=O)O; NMedβ3hAla = C[C@H](CC(=O)[*:2])N(C)[*:1]; NMeGly(cPent) = CN[C@H](C(=O)O)C1CCCC1; Pro(4,4-F2) = O=C(O)[C@@H]1CC(F)(F)CN1; NMeCha = CN[C@@H](CC1CCCCC1)C(=O)O; NMeChg = CN[C@H](C(=O)O)C1CCCCC1; NMeF = CN[C@@H](Cc1ccccc1)C(=O)O; NMeD = CN[C@@H](CC(=O)O)C(=O)O; NMeL = CN[C@@H](CC(C)C)C(=O)O; NMehSer = CN[C@@H](CCO)C(=O)O; NMeV = CN[C@H](C(=O)O)C(C)C; d(β3hA) = C[C@@H](N)CC(=O)O; NMeS = CN[C@@H](CO)C(=O)O; dPip = O=C(O)[C@H]1CCCCN1; NMeA = CN[C@@H](C)C(=O)O; Piperidide = C1CCN(*)CC1; Pyrrolidide = C1CCN(*)C1; Ac5c = NC1(C(=O)O)CCCC1; Aze = O=C(O)[C@@H]1CCN1; Thp = NC1(C(=O)O)CCOCC1; Ac4c = NC1(C(=O)O)CCC1; Sar = CNCC(=O)O; Propyl = CCC*

Molecular target: T1, Kras and SOS1 (biotin-tagged human Kras loaded with GDP, His-tagged human SOS1) (Homo sapiens, UniProt P01116, G12D)
T1 construct: made in house; host or cells: E. coli (stated for Kras only)
T1 sequence (P01116 1-188 isoform P01116-2 G12D): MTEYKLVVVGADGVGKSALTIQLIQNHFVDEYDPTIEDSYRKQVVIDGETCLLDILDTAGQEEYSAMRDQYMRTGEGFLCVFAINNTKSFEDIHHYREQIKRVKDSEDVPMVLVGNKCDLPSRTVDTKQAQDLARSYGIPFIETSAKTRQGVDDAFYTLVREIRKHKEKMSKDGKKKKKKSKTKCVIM
Assay: Protein-protein interaction inhibition between Kras and SOS1 (KrasGl2D-SOS PPI) using AlphaScreen
Assay type: binding
Conditions: AlphaScreen; biotin-tagged human Kras loaded with GDP, His-tagged human SOS1; read-out: KRAS G12D-SOS PPI IC50
Summary of the method: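 Kras was produced in E. coli, purified, then loaded with GDP. It was paired via streptavidin acceptor beads with His-SOS1 held on nickel donor beads, and proximity signal at 520-620 nm was read after 680 nm illumination.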

Structure (SMILES) | IC50
CC[C@H](C)[C@@H]1NC(=O)[C@H](CC(C)C)N(C)C(=O)C[C@@H](C(=O)N(C)C)N(C)C(=O)[C@H](C2CCCC2)N(C)C(=O)[C@H](C)NC(=O)[C@@H](C)NC(=O)[C@H](CCc2ccc(C(F)(F)F)c(Cl)c2)NC(=O)CN(C)C(=O)[C@H](CC2CCCCC2)N(C)C(=O)[C@@H]2CCN2C(=O)[C@H](C)N(C)C1=O [Compound 736] ([NMeL]I[NMeA][Aze][NMeCha][Sar][hPhe(3-Cl-4-CF3)][dA]A[NMeGly(cPent)][NMeD]-NMe2; lactam N-11) | 37 nM
CC[C@H](C)[C@@H]1NC(=O)[C@H](CC(C)C)N(C)C(=O)C[C@@H](C)N(C)C(=O)[C@H](C2CCCCC2)N(C)C(=O)C2(CCC2)NC(=O)[C@@H]2CC(F)(F)CN2C(=O)[C@H](CCc2cc(F)c(C(F)(F)F)c(F)c2)NC(=O)CN(C)C(=O)[C@H](CC2CCCCC2)N(C)C(=O)CN(C)C(=O)CN(C)C1=O [Compound 738] (cyclo([Ac4c][NMeChg][NMedβ3hAla][NMeL]I[Sar][Sar][NMeCha][Sar][hPhe(3,5-F2-4-CF3)][Pro(4,4-F2)])) | 15 nM
CCCOC[C@H]1C(=O)N(C)[C@@H](CC(C)C)C(=O)N[C@H](C(=O)N2CCCC2)CC(=O)N(C)[C@@H](C)C(=O)N[C@@H]([C@@H](C)CC)C(=O)N(C)CC(=O)N(C)CC(=O)N(C)[C@@H](Cc2ccc(Cl)cc2)C(=O)N(C)CC(=O)N[C@@H](CCc2ccc(C(F)(F)F)cc2)C(=O)N[C@@H](CC(C)C)C(=O)N1C [Compound 739] ([NMeA]I[Sar][Sar][NMePhe(4-Cl)][Sar][hPhe(4-CF3)]L[NMeS](Propyl)[NMeL]D-Pyrrolidide; lactam N-11) | 36 nM
CC[C@H](C)[C@@H]1NC(=O)[C@H](CC(C)C)N(C)C(=O)C[C@@H](C)N(C)C(=O)[C@H](CC(C)C)N(C)C(=O)C2(CCOCC2)NC(=O)[C@@H]2CCCN2C(=O)[C@H](CCc2ccc(C(F)(F)F)c(Cl)c2)NC(=O)CN(C)C(=O)[C@H](CC2CCCCC2)N(C)C(=O)CN(C)C(=O)CN(C)C1=O [Compound 742] (cyclo(I[Sar][Sar][NMeCha][Sar][hPhe(3-Cl-4-CF3)]P[Thp][NMeL][NMedβ3hAla][NMeL])) | 17 nM
CC[C@H](C)[C@@H]1NC(=O)[C@H](CC(C)C)N(C)C(=O)C[C@@H](C(=O)N2CCCCC2)N(C)C(=O)[C@H](CCOC)N(C)C(=O)C2(CCCC2)NC(=O)[C@@H]2CCCN2C(=O)[C@H](CCc2ccc(C(F)(F)F)c(Cl)c2)NC(=O)CN(C)C(=O)[C@H](CC2CCCCC2)N(C)C(=O)CN(C)C(=O)CN(C)C1=O [Compound 744] ([NMeL]I[Sar][Sar][NMeCha][Sar][hPhe(3-Cl-4-CF3)]P[Ac5c][NMehSer](Me)[NMeD]-Piperidide; lactam N-11) | 7.5 nM
CC[C@H](C)[C@@H]1NC(=O)[C@H](C)N(C)C(=O)C[C@@H](C)NC(=O)[C@H](C(C)C)N(C)C(=O)C2(CCCC2)NC(=O)[C@@H]2CCCN2C(=O)[C@H](CCc2ccc(C(F)(F)F)c(Cl)c2)NC(=O)[C@H]2CCCCN2C(=O)[C@H](CC2CCCCC2)N(C)C(=O)CN(C)C(=O)CN(C)C1=O [Compound 746] (cyclo([Ac5c][NMeV][d(β3hA)][NMeA]I[Sar][Sar][NMeCha][dPip][hPhe(3-Cl-4-CF3)]P)) | 130 nM
CC[C@H](C)[C@@H]1NC(=O)[C@H](CC(C)C)N(C)C(=O)C[C@@H](C)N(C)C(=O)[C@H](C2CCCCC2)N(C)C(=O)C2(CCC2)NC(=O)[C@@H]2CC(F)(F)CN2C(=O)[C@H](CCc2ccc(C(F)(F)F)c(Cl)c2)NC(=O)CN(C)C(=O)[C@H](Cc2ccc(C(F)(F)F)cc2)N(C)C(=O)CN(C)C(=O)CN(C)C1=O [Compound 750] (cyclo([Ac4c][NMeChg][NMedβ3hAla][NMeL]I[Sar][Sar][NMePhe(4-CF3)][Sar][hPhe(3-Cl-4-CF3)][Pro(4,4-F2)])) | 28 nM
CC[C@H](C)[C@@H]1NC(=O)[C@H](C)N(C)C(=O)C[C@@H](C)NC(=O)[C@H](CC(C)C)N(C)C(=O)[C@H](Cc2ccccc2)N(C)C(=O)[C@@H]2CCCN2C(=O)[C@H](CCc2ccc(C(F)(F)F)cc2)NC(=O)CN(C)C(=O)[C@H](Cc2ccc(Cl)cc2)N(C)C(=O)CN(C)C(=O)CN(C)C1=O [Compound 751] (cyclo(I[Sar][Sar][NMePhe(4-Cl)][Sar][hPhe(4-CF3)]P[NMeF][NMeL][d(β3hA)][NMeA])) | 82 nM
